Measured values reported in patent US12419824B2, “Compounds useful for the treatment and/or care of the skin, hair, nails and/or mucous membranes” (Lubrizol Advanced Materials, Inc., priority 2019, dated 2025).

Experiments:
Assay type in all cases: cell-based
[1] = tested on: Muscle bind like protein 1 (MBNL1); experiment: MBNL1 quantification in human dermal fibroblasts by immunofluorescence (Example 8); conditions: HDF, 1, 0.5 and 0.01 mg/ml, 24 hours, nuclear fluorescence normalized by nuclei
Description: MBNL1 induction by the peptides of the invention is evaluated by an Immunofluorescence assay. The aim of this study is to investigate the capacity of peptide candidates to increase MBNL1 in human dermal fibroblasts (HDF).
HDF (Cascade) are seeded in 96-well plates at a density of 8×10^3 cells/well in Fibroblast Growth Medium (Promocell). After 48 hours incubation, medium is removed and fresh medium with 1, 0.5 and 0.01 mg/ml of test items is added. Treatment is continued for 24 hours and non-treated cells are used as basal control. After 24 hours of treatment, an immunofluorescence is performed. Cells are fixed 15 minutes with 4% Paraformaldehide (Sigma), permeated 15 minutes with 1% Triton X-100 (Sigma) and then blocked with 5% Bovine Serum Albumin (Sigma). Next, primary antibody Anti-MBNL1 Rabbit (Sigma) is added and incubated for 2 hours. After that, secondary antibody Alexa Fluor™ 488 goat anti-rabbit IgG (Life Technologies) is added and incubated for 1 hour. To stain nuclei, Hoechst (Life Technologies) is added and incubated for 10 minutes. Finally, MBNL1 cell nuclei fluorescence intensity and nuclei number are measured by Operetta™ (Perkin Elmer). Fluorescence is normalized by cell nuclei and results are represented respect to basal control.

[2] = tested on: Muscle bind like protein 1 (MBNL1); experiment: MBNL1 quantification in human skeletal muscle cells by TR-FRET (Examples 7, 19); conditions: hSkMc (Innoprot), 0.5 mg/ml, 48 hours, normalized to total protein
Description: MBNL1 induction by the peptides of the invention is evaluated by a Time resolved fluorescence resonance energy transfer (TR-FRET) assay. The aim of this study is to investigate the capacity of peptide candidates to increase MBNL1 in human skeletal muscle cells (hSkMc).
hSkMc (Innoprot) are seeded in 12-well plates at a density of 1.5×10^4 cells/well in Skeletal Muscle Cell Growth Medium (Promocell). After 72 hours incubation, medium is removed and replaced with Skeletal Muscle Cell Differentiation Medium (Promocell). 48 hours after beginning cell differentiation, fresh differentiation medium with 0.5 mg/ml of test items is added. Treatment is continued for 48 hours and non-treated cells are used as basal control. After 48 hours of treatment, cell medium is removed and added cell lysis buffer to wells. Immediately, plates are kept at −80° C. in order to improve protein extraction during the defrosting process. After 72 hours, cells are lysated by shaking the plates in an orbital rotor at room temperature for 45 minutes. Next, cell lysates are collected and assayed to quantify the level of MBNL1 protein and total protein concentration.
MBNL1 protein levels measurement is performed with Human MBNL1 Assay Kit (Cisbio) according to the manufacturer's protocol. Briefly, the kit is used to perform a TR-FRET for MBNL1 quantification. The protein is detected with the antibodies provided in the kit and quantified by a fluorescence measurement. The quantification is carried out by using a microplate reader (ClarioStar, BMG) set to 665 nm and 620 nm.
Total protein concentration of cell lysate is determined by using Pierce BCA Protein Assay Kit™ (Thermo Scientific) according to manufacturer's protocol. In brief, after adding Working Reagent to the samples and the standards, the samples are incubated. Afterwards, color change is measured with an absorbance microplate reader (Clariostar™, BMG) at 562 nm. The total protein amount is used to normalize the level of MBNL1 protein concentration obtained by the TR-FRET test in the samples.
Different peptides of the invention are tested as disclosed in Example 7 at 0.5 mg/mL.

[3] = tested on: human subcutaneous pre-adipocytes; experiment: Lipid accumulation in human subcutaneous pre-adipocytes, Adipored staining (Example 13); conditions: coculture of young and old pre-adipocytes, 0.01 mg/ml, 12 days
From the text: The aim of this study is to investigate the capacity of peptide candidates to induce lipid accumulation in human subcutaneous adipocytes, and therefore prevent adipocytes senescence. Measurement of lipid accumulation in a coculture of young and old adipose cells indirectly evaluates the inhibition of senescence-associated secretory phenotype (SASP). A pool of old adipose cells has a higher number of senescent cells. When cocultured with young cells, lipid accumulation observed is below the theoretically expected levels due to senescence induction effect of SASP on young adipocytes.
Induction of lipid accumulation by the peptides of the invention is evaluated by lipid fluorescent staining with Adipored® Assay Reagent. Human subcutaneous pre-adipocytes (donors, Cell applications) cells are cocultured in 96-well plates at a density of 4×10^3 cells/well each age in Human Preadipocyte Growth Medium (Sigma). Monoculture of each age are seeded at a density of 8×10^3 cells/well as age lipid accumulation controls. After 24 hours incubation, differentiation of pre-adipocytes into adipocytes is induced by changing medium to fresh Human Preadipocyte Differentiation Medium (Promocell). […] Finally, fluorescence intensity and nuclei number are measured by Operetta™ (Perkin Elmer). Fluorescence is normalized by cell nuclei and results are represented respect to cocultured basal control.

Substance | MBNL1 levels compared to the basal control [1] | MBNL1 levels compared to the basal control [2] | lipid accumulation compared to basal control and old control [3]
H-Ala-Leu-Lys-Pro-Asn-Thr-NH2 (H-ALKPNT-NH2) [PEP2] | increase MBNL1 levels | increase MBNL1 levels | increase lipid accumulation in adipocytes
Ac-Asp-Val-Tyr-Lys-NH2 (Ac-DVYK-NH2) [PEP1] | increase MBNL1 levels | increase MBNL1 levels | increase lipid accumulation in adipocytes
